Tested on: immunoglobulin light chain protein WIL-FL T46L
Assay: Differential Scanning Fluorimetry (thermal shift) assay
Type: binding
Settings: recombinant amyloidogenic full length light chain WIL-FL T46L; protein and compound incubated at RT for 30 min before dye
Procedure: Differential Scanning Fluorimetry Assay
The stabilization effects the compounds have on the immunoglobulin light chain protein was quantitively measured using a thermal shift assay. Recombinant amyloidogenic full length light chain protein WIL-FL T46L was produced in E. coli, purified, and used in the assay. The Thermal Shift Protein Stability Kit from Biotium was used and the assay was done in 96-well Plates following the manufacturer's instructions. The protein and compounds were incubated at RT for 30 min before adding the dye and subjected to the thermal shift assay. The thermal stability (Tm) of each sample was then determined using standard curve fitting methods and compared to vehicle. Data are expressed as temperature shift: [Tm]compound−[Tm]vehicle.
The compounds provided herein induce shifts in the ranges below: • 0-0.5° C.═* • >0.5-1° C.═** • >1-1.5° C.═*** • >1.5-2.5° C.═**** • >2.5° C.═*****

SMILES	DSF temperature shift: [Tm]compound−[Tm]vehicle
CC[C@@]1(c2ccccc2)CCN(c2cc(C)n(CCN3CC4(CCN(c5cn6ccnc6cn5)CC4)NC3=O)c(=O)c2)C1 [Compound 15]	**** (>1.5-2.5° C.═****)
Cc1cc(N2CCC(C)(c3ccccc3)C2=O)cc(=O)n1CCN1C(=O)NC2(CCN(c3ncccn3)C2)C1=O (stereo not shown) [Compound 34, 3-(2-(6-methyl-4-(3-methyl-2-oxo-3-phenylpyrrolidin-1-yl)-2-oxopyridin-1(2H)-yl)ethyl)-7-(pyrimidin-2-yl)-1,3,7-triazaspiro[4.4]nonane-2,4-dione]	* (0-0.5° C.═*)
CC[C@]1(c2ccccc2)CCN(c2cc(C)n(CCN3CC4(CCN(c5ccc(C(=O)O)nc5)CC4)NC3=O)c(=O)c2)C1 [Compound 19]	** (>0.5-1° C.═**)
Cc1cc(N2CC[C@@](C)(c3ccccc3)C2)cc(=O)n1CCCN1CC2(CCN(c3nccn4ccnc34)CC2)NC1=O [Compound 13]	** (>0.5-1° C.═**)
CC[C@]1(c2ccccc2)CCN(c2cc(C)n(CCN3CC4(CCN(c5cccc(C(=O)OC)n5)CC4)NC3=O)c(=O)c2)C1 [Compound 21]	**** (>1.5-2.5° C.═****)
Cc1cc(N2CCC(C)(c3ccccc3)C2)cc(=O)n1CCN1C(=O)NC2(CCN(c3ncccn3)C2)C1=O (stereo not shown) [Compound 33]	*** (>1-1.5° C.═***)
CC[C@]1(c2ccccc2)CCN(c2cc(C)n(CCN3CC4(CCN(c5cccc(C(=O)O)n5)CC4)NC3=O)c(=O)c2)C1 [Compound 20]	**** (>1.5-2.5° C.═****)
Cc1cc(N2CC[C@@](C)(c3ccccc3)C2)cc(=O)n1CCCN1CC2(CCN(c3nccn4ccnc34)CC2)NC1=O [Compound 10]	**** (>1.5-2.5° C.═****)
CC[C@]1(c2ccccc2)CCN(c2cc(C)n(CCN3CC4(CCN(c5ccc(C(=O)OC)nn5)CC4)NC3=O)c(=O)c2)C1 [Compound 18]	***** (>2.5° C.═*****)
Cc1cc(N2CCC(C)(c3ccccc3)C2)cc(=O)n1CCCN1C(=O)NC2(CCN(c3ncccn3)CC2)C1=O (stereo not shown) [Compound 28, 3-(3-(6-methyl-4-(3-methyl-3-phenylpyrrolidin-1-yl)-2-oxopyridin-1(2H)-yl)propyl)-8-(pyrimidin-2-yl)-1,3,8-triazaspiro[4.5]decane-2,4-dione]	**** (>1.5-2.5° C.═****)
CCOC(=O)c1ccc(N2CCC3(CC2)CN(CCn2c(C)cc(N4CC[C@](CC)(c5ccccc5)C4)cc2=O)C(=O)N3)cn1 [Compound 14]	***** (>2.5° C.═*****)
Cc1cc(N2CC[C@](C)(c3ccccc3)C2)cc(=O)n1CCCN1C(=O)NC2(CCN(c3nccn4ccnc34)CC2)C1=O [Compound 35]	*** (>1-1.5° C.═***)
Cc1cc(N2CCC(C)(c3ccccc3)C2)cc(=O)n1CCN1C(=O)NC2(CCN(c3ncccn3)CC2)C1=O (stereo not shown) [Compound 30]	**** (>1.5-2.5° C.═****)
Cc1cc(N2CC[C@@](C)(c3ccccc3)C2)cc(=O)n1CCN1C(=O)NC2(CCN(c3nccn4cncc34)CC2)C1=O [Compound 31]	*** (>1-1.5° C.═***)
CC[C@]1(c2ccccc2)CCN(c2cc(C)n(CCN3CC4(CCN(c5ccc(C(=O)O)nn5)CC4)NC3=O)c(=O)c2)C1 [Compound 17]	***** (>2.5° C.═*****)
Cc1cc(N2CCC(C)(c3ccccc3)C2)cc(=O)n1CCN1CC2(CCN(c3ncccn3)C2)NC1=O (stereo not shown) [Compound 11, 3-(2-(6-methyl-4-(3-methyl-3-phenylpyrrolidin-1-yl)-2-oxopyridin-1(2H)-yl)ethyl)-7-(pyrimidin-2-yl)-1,3,7-triazaspiro[4.4]nonan-2-one]	*** (>1-1.5° C.═***)
Cc1cc(N2CCC(C)(c3ccccc3)C2)cc(=O)n1CCCN1C(=O)NC2(CCN(c3nccn4ccnc34)CC2)C1=O (stereo not shown) [Compound 29]	**** (>1.5-2.5° C.═****)
CC[C@@]1(c2ccccc2)CCN(c2cc(C)n(CCN3CC4(CCN(c5ccc6nncn6c5)CC4)NC3=O)c(=O)c2)C1 [Compound 16]	**** (>1.5-2.5° C.═****)
Cc1cc(N2CC[C@@](C)(c3ccccc3)C2)cc(=O)n1CCN1CC2(CCN(c3ncnc4[nH]ncc34)CC2)NC1=O [Compound 9]	**** (>1.5-2.5° C.═****)
CC[C@]1(c2ccccc2)CCN(c2cc(C)n(CCN3CC4(CCN(c5nccn6cnnc56)CC4)NC3=O)c(=O)c2)C1 [Compound 22]	*** (>1-1.5° C.═***)
Cc1cc(N2CC[C@](C)(c3ccccc3)C2)cc(=O)n1CCN1CC2(CCN(c3nccn4ccnc34)CC2)NC1=O [Compound 12]	*** (>1-1.5° C.═***)
CC[C@@]1(c2ccccc2)CCN(c2cc(C)n(CCN3CC4(CCN(c5nccn6cnnc56)CC4)NC3=O)c(=O)c2)C1 [Compound 1, (S)-8-([1,2,4]triazolo[4,3-a]pyrazin-8-yl)-3-(2-(4-(3-ethyl-3-phenylpyrrolidin-1-yl)-6-methyl-2-oxopyridin-1(2H)-yl)ethyl)-1,3,8-triazaspiro[4.5]decan-2-one]	***** (>2.5° C.═*****)
Cc1cc(N2CC[C@@](C)(c3ccccc3)C2)cc(=O)n1CCCN1C(=O)NC2(CCN(c3nccn4ccnc34)CC2)C1=O [Compound 27]	**** (>1.5-2.5° C.═****)
Cc1nc(N2CC[C@](C)(c3ccccc3)C2)cc(=O)n1CCN1CC2(CCN(c3nccn4ccnc34)CC2)NC1=O [Compound 24]	*** (>1-1.5° C.═***)
Cc1cc(O[C@H](C)c2ccccc2)cc(=O)n1CCN1C(=O)NC2(CCN(c3nccn4ccnc34)CC2)C1=O [Compound 32, (R)-8-(imidazo[1,2-a]pyrazin-8-yl)-3-(2-(6-methyl-2-oxo-4-(1-phenylethoxy)pyridin-1(2H)-yl)ethyl)-1,3,8-triazaspiro[4.5]decane-2,4-dione]	** (>0.5-1° C.═**)
